# Experimental data from US10858364B2, “Imidazopyrazine inhibitors of Bruton's tyrosine kinase” (Acerta Pharma B.V., priority 2016, dated 2020).
# Columns and labels:
# BTK = BTK (Homo sapiens (Human), UniProt Q06187); assay: BTK target occupancy ELISA in Ramos B cells; format: cell-based; settings: 2h incubation
# Protocol: Ramos B cells (ATCC, cat no. CRL-1923) were plated in 24-wells culture plates at 2×10^6 cells per well in a total volume of 900 μL DMEMF12+10% FBS+2 mM L-Glutamine+Pen/Strep. Allow the cells to rest 1 h at 5-7% CO2 and 37° C. Serial dilutions log 10 from 10 mM to 316 nM of test compounds are made in 100% DMSO, followed by a 100-fold dilution into culture medium. For each well, 100 μL was then transferred to well plate containing 900 μL of Ramos B cells. Final compound concentration range in the assay varied from 10 μM to 0.316 nM, with a final DMSO concentration of 0.1% and incubated at 5-7% CO2 and 37° C. for 2h. Afterwards, cells are collected for the measurement of the BTK target occupancy using the BTK target occupancy ELISA as outlined below. The percent of drug-bound BTK in Ramos B cell samples was determined by an ELISA based method as follows: OptiPlate 96-well plates (Perkin Elmer) were coated with 125 ng/well anti-BTK Ab (BD Biosciences) and blocked with BSA (Sigma-Aldrich). […] One hundred L/well of SuperSignal ELISA Femto Substrate (ThermoFisher Scientific) was added and then chemiluminescence was measured after 1 minute (EnVision® plate reader; PerkinElmer). The percent of BTK occupancy for each sample was calculated relative to the vehicle control. […] Ramos cells were incubated with a dose range of M27 and BTK target occupancy was determined by ELISA.
# BLK = BLK (Homo sapiens (Human), UniProt P51451); assay: BLK Z'-LYTE kinase assay; format: biochemical; settings: 1 h pre-incubation, Km ATP
# Protocol: (§1) BMX, TXK, EGFR, ERBB2, ERBB4, JAK3, BLK kinase activity was measured using the Z′-LYTE assay at Thermo Fisher. A 10-point dose response (final concentration in assay ranged from 10 μM to 0.5 nM in 3-fold dilution per dilution step) was generated with 1 h incubation of the test compound with the kinase prior to initiation of the kinase reaction by the addition of ATP. ATP concentration in the assay was Km ATP for the different kinases. IC50 values are determined by curve fitting of the experimental results at Thermo Fisher.
# ERBB4 [1] = biological target: T1, ERBB4 (Homo sapiens (Human), UniProt Q15303); assay: ERBB4 Z'-LYTE kinase assay; format: biochemical; settings: 1 h pre-incubation, Km ATP
# Protocol: as §1
# ERBB4 [2] = biological target: T1, ERBB4; assay: DiscoveRx Kd dose response, ERBB4; format: binding
# Protocol: Kinase profiling was performed with M27 was done at DiscoveRx at a single dose of 1 μM on all available kinases (KINOMEscan). The overall kinase selectivity score is in Table 6. […] Kinases inhibited >65% at 1 μM for M27 were followed up with a dose response at DiscoveRx. The M27 had IC50 values <1 μM for almost the same set of kinases with exception of TXK, but with additional inhibition of BRK (PTK6).
# T1 sequence (Q15303 26-1308): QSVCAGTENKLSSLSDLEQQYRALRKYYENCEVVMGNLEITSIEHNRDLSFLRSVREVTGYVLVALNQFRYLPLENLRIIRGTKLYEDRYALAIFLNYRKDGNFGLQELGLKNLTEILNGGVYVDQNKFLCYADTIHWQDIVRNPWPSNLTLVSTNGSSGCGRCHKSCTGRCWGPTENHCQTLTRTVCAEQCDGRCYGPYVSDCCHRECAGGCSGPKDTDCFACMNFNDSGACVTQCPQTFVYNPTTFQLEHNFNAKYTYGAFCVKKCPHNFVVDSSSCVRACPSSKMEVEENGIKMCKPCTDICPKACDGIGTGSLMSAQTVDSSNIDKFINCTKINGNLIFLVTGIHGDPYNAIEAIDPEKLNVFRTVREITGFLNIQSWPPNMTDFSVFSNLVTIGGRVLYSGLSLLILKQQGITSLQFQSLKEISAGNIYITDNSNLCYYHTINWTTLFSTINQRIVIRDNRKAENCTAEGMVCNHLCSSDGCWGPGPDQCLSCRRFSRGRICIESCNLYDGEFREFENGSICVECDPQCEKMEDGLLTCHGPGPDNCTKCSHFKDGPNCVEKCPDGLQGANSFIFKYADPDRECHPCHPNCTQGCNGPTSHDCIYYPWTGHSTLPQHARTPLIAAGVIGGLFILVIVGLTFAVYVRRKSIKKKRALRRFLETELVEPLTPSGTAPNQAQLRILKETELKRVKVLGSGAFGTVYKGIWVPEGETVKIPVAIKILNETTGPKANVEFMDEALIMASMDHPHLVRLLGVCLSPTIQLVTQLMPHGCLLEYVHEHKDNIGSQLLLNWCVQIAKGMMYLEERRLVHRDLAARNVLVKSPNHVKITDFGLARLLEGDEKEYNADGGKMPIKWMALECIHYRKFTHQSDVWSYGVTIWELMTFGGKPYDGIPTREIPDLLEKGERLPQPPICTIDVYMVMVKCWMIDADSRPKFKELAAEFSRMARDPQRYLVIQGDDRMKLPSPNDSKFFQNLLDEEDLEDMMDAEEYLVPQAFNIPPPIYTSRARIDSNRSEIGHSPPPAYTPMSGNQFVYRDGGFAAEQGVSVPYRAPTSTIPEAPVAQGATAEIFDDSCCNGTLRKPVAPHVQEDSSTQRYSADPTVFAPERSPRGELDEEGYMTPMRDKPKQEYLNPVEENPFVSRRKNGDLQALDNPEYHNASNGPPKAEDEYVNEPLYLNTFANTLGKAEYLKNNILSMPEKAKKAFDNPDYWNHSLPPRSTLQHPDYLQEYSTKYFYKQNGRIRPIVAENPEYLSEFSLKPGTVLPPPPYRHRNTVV
# BLK, sequence (P51451 whole entry): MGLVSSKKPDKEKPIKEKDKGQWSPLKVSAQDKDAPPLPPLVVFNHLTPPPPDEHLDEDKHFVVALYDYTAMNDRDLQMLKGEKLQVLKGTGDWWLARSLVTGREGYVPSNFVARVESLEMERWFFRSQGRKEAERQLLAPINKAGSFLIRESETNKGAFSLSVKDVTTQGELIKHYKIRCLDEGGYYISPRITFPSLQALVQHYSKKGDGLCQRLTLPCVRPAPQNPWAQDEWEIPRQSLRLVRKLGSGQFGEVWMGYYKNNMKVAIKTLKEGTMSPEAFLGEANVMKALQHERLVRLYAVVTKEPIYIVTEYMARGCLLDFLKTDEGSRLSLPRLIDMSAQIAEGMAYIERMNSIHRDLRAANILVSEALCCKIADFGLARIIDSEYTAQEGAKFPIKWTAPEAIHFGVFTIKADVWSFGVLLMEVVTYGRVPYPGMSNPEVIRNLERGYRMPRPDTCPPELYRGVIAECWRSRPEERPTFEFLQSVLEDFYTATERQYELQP
# BTK, sequence (Q06187 whole entry): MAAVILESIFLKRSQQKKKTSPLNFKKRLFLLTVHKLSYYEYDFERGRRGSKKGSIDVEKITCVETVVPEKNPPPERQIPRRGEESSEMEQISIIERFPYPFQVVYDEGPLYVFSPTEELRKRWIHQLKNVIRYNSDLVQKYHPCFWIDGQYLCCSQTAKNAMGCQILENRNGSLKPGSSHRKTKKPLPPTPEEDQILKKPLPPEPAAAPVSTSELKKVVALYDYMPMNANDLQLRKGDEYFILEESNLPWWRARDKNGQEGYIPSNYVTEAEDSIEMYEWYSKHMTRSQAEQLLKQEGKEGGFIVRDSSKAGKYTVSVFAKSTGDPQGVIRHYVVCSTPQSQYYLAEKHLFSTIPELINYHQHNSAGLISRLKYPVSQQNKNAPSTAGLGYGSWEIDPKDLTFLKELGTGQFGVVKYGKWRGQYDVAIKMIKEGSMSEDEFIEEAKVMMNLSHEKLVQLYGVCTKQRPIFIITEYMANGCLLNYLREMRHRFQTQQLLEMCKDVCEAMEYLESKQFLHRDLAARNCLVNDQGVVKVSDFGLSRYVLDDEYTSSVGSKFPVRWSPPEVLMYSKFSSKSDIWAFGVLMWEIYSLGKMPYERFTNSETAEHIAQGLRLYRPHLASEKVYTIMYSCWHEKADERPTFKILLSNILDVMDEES
compound,measurement,setting,value
"CC#CC(=O)NCCCC(=O)c1nc(-c2ccc(C(=O)Nc3ccccn3)cc2)c2c(N)nccn12 [Formula (I), 4-(8-amino-3-(4-(but-2-ynamido)butanoyl)imidazo[1,5-a]pyrazin-1-yl)-N-(pyridin-2-yl)benzamide]",IC50,BTK,0.039 µM
same,IC50,BLK,6.17 ± 3.35 µM
same,IC50,ERBB4 [1],0.343 ± 0.023 µM
same,Kd,ERBB4 [2],0.97 µM
